The values that follow come from paper PMC10486429, “Investigations Using Albumin Binders to Modify the Tissue Distribution Profile of Radiopharmaceuticals Exemplified with Folate Radioconjugates” (Cancers, 2023).

A short description of data set [1]: Blood clearance of 177Lu-DOTA-ALBs in FVB mice. To be noted: for Time to Reach 50% IA (T50%IA): blood activity, value at 3 min set as 100%. The procedure: Immunocompetent female mice (FVB) at the age of 5 to 6 weeks were purchased from Charles River Laboratories (Sulzfeld, Germany) and acclimatized upon arrival for at least 7 days. FVB mice were intravenously injected with ^177Lu-DOTA-ALBs (25 MBq, 1 nmol/mouse, 100 µL PBS containing 0.05% bovine serum albumin (BSA) and 25 μg L-ascorbic acid, n = 3−6 mice per radioligand) followed by the first blood sampling of 3 × 1 μL from a different tail vein 3 min after injection (set as t0). Additional blood samples were taken at defined time points after injection. All collected blood samples from individual mice were measured at the same time using a γ-counter (PerkinElmer Wallac Wizard 1480, Waltham, MA, USA) to obtain decay-corrected values. The counts were set in relation to the initial counts at t0 (set as 100%) to prepare clearance curves by plotting the percentage of retained activity in the blood (% IA) against the time. The blood clearance curves were investigated until the counts of the blood samples were below the linear detection range (Supplementary Materials Section S6). An analysis was performed using GraphPad Prism software (version 8.0) by fitting a non-linear regression curve (exponential, two-phase) to the data points to calculate the serum half-lives. The areas under the curves (AUC0–7days) were calculated by integrating the blood excretion curves over 7 days and setting into relation with the AUC0–7days value obtained for [^177Lu]Lu-DOTA-ALB-1 (set as 1.0) to obtain relative AUC0–7days values. […]
S6. Blood Clearance of 177Lu-DOTA-ALBs
Purpose: The 177Lu-labeled DOTA-ALBs were investigated in vivo in order to assess their blood clearance profile.
Methods: Female, immunocompetent FVB mice were obtained from Charles River Laboratories (Sulzfeld, Germany), at the age of 5–6 weeks and acclimatized for at least 7 days before the start of the in vivo studies. Blood clearance of 177Lu-labeled DOTA-ALBs were determined in n=3–6 mice per radioligand. The radiolabeled DOTA-ALBs ( 25 MBq/nmol) were formulated in PBS pH 7.4 containing 0.05% bovine serum albumin (BSA) and L-ascorbic acid (25 µg per 25 MBq) to prevent radiolytic degradation. Mice were intravenously injected with the respective 177Lu-labeled DOTA-ALB (25 MBq, 1 nmol, 100 µL per mouse). The blood clearance was determined by taking blood samples (3 × 1 µL) from the tail vein using 1 µL-capillaries at 3 min after injection (set as t0) as well as at various timepoints over the following 48 h. In the case of [177Lu]Lu-DOTA-ALB-1 and [177Lu]Lu-DOTA-ALB-3, blood sampling was additionally performed at later time points up to 3 and 7 days, respectively. The collected blood samples were measured in a γ-coun-ter (PerkinElmer, Wallac Wizard 1480, Waltham, MA, USA).

Data set [2] relates to human serum albumin (HSA) in human blood plasma. In words: Ultrafiltration albumin-binding assay of 177Lu-DOTA-ALBs, human blood plasma. As to the method:
(§1) The relative affinities of ^177Lu-labeled DOTA-ALBs (50 MBq/nmol) to albumin in mouse and human blood plasma were determined using an ultrafiltration assay according to a previously described procedure (Supplementary Materials Section S5). A dry chemistry analyzer (DRI-CHEM 4000i, FUJIFILM, Japan) was used to determine the mouse serum albumin concentration (conc. MSA: ~550 µM) in mouse blood plasma (Rockland Immunochemicals, Inc., Pottstown, PA, USA, Lot No. 23248) and the human serum albumin concentration (conc. HSA: ~800 µM) in human blood plasma of a healthy volunteer (Stiftung Blutspende SRK Aargau-Solothurn, Aarau, Switzerland). The albumin-bound fraction of the radioligands was determined at variable molar concentration ratios of serum albumin to the respective radiolabeled DOTA-ALB using a blood plasma/PBS dilution series and a constant amount of ^177Lu-DOTA-ALBs (0.5 MBq; 0.01 nmol). The free (albumin-unbound) radioligand fraction was separated from the albumin-bound fraction using Centrifree filter devices (cut-off 10 kDa; Merck Millipore, Carrigtwohill, Ireland) to enable the calculation of the percentage of albumin-bound radioligand. […] The results were presented as average ± standard deviation (SD) of 3 independent experiments. […]
(§2) S5. Relative Albumin-binding Properties of 177Lu-DOTA-ALBs
(§3) Purpose: The relative albumin-binding affinities of the 177Lu-DOTA-ALBs were in-vestigated using mouse and human blood plasma.
(§4) Methods: Relative binding affinities of 177Lu-DOTA-ALBs to mouse (MSA) and hu-man (HSA) serum albumin in the respective blood plasma were determined using an ul-trafiltration assay according to a previously described procedure. In brief, an average MSA concentration of ⁓550 µM was measured for mouse blood plasma (Rockland Immu-nochemicals, Inc., Pottstown, PA, USA, Lot N° 23248), while an HSA concentration of ⁓800 µM was determined for human blood plasma (Stiftung Blutspende SRK Aargau-Solothurn, Aarau, Switzerland) using a dry chemistry analyzer (DRI-CHEM 4000i, FUJI-FILM, Japan). A fixed amount of the respective 177Lu-DOTA-ALB (50 MBq/nmol:, ~500 kBq, 25 µL, 0.01 nmol) was added to a defined volume (250 µL) of mouse and human […]
(§5) and 0.01 to 20000, respectively. […]
(§6) off 10 kDa; Merck Millipore, Carrigtwohill, Ireland). The albumin-bound fractions at the […]
(§7) the half-maximum binding (B50). The relative albumin-binding affinities were defined as […]
(§8) sented as average ± SD of 3 independent experiments.
(§9) Results: The results are reported in the main article.
(§10) S6. Blood Clearance of 177Lu-DOTA-ALBs […]
(§11) their blood clearance profile.
(§12) Blood clearance of 177Lu-labeled DOTA-ALBs were determined in n=3–6 mice per radioligand. The radiolabeled DOTA-ALBs ( […]
(§13) various timepoints over the following 48 h. […]
(§14) up to 3 and 7 days, respectively. […]

The subject of data set [3] is mouse serum albumin (MSA) in mouse blood plasma. In words: Ultrafiltration albumin-binding assay of 177Lu-DOTA-ALBs, mouse blood plasma. The procedure: as §1, §2, §3, §4, §5, §6, §7, §8, §9, §10, §11, §12, §13, §14
Where [4] appears, read: FVB mice, i.v., 25 MBq, 1 nmol, two-phase exponential fit of blood activity.

Consider `O=C(O)CN1CCN(CC(=O)O)CCN(CC(=O)NCCC(=O)N[C@@H](CCCCNC(=O)CCCc2ccc(I)cc2)C(=O)O)CCN(CC(=O)O)CC1.[177Lu]` [[^177Lu]Lu-DOTA-ALB-1], for which the “Rel. Blood AUC0–7days” value in data set [1] (mouse, in vivo) came out at 1.0. Further, in data set [1] (mouse, in vivo, iv), the “% Phase a” value is 33%, the “% Phase b” value is reported as 67%, the “Blood AUC0–7days” value came to 1500 % IA× h and the “Half-Life Phase a” value was determined as 0.006 h. Besides, the “Half-Life Phase b” value in data set [1] (mouse, in vivo, iv) worked out at 16 h. The “Fold higher albumin-binding affinity than [177Lu]Lu-DOTA-ALB-24” value in data set [2] was ~ 10 fold. In addition, in data set [3], the “Fold higher albumin-binding affinity than [177Lu]Lu-DOTA-ALB-24” value is given as ~ 3 fold.

For the compound `O=C(O)CN1CCN(CC(=O)O)CCN(CC(=O)NCCC(=O)N[C@@H](CCCCNC(=O)c2ccc(CNC(=O)CCCc3ccc(I)cc3)cc2)C(=O)O)CCN(CC(=O)O)CC1.[177Lu]` [[^177Lu]Lu-DOTA-ALB-3], the “Retention of activity in the blood” value in data set [1] (FVB mice, 0 h p.i. (t0 set as 100%)) was found to be 100 % IA; in data set [1] (FVB mice, 1 h p.i.) it was 81 ± 9 % IA; in data set [1] (FVB mice, 2 h p.i.) it was 74 ± 16 % IA; in data set [1] (FVB mice, 4 h p.i.), 71 ± 11 % IA; in data set [1] (FVB mice, 8 h p.i.), 66 ± 10 % IA; in data set [1] (FVB mice, 24 h p.i.), 45 ± 7 % IA. Also, the “Retention of activity in the blood” value was 28 ± 5 % IA in data set [1] (FVB mice, 48 h p.i.); 19 ± 2 % IA in data set [1] (FVB mice, 72 h p.i.); 7 ± 2 % IA in data set [1] (FVB mice, 120 h p.i.); 5 ± 1 % IA in data set [1] (FVB mice, 144 h p.i.); 3 ± 1 % IA in data set [1] (FVB mice, 168 h p.i.). Further, the “Half-Life Phase a” value in data set [1] (setting [4]) was found to be 0.5 h. Also, the “Half-Life Phase b” value in data set [1] (setting [4]) came to 34 h. Besides, the “Time to Reach 50% IA (T50%IA)” value in data set [1] (FVB mice, i.v.) was ~ 24 h; in data set [1] (FVB mice, i.v., listed as 3) it was about 24 h. Besides, in data set [1] (FVB mice, i.v., decay-corrected, over 7 days), the “Blood AUC0–7days” value turned out to be 3617 % IA× h. The “% Phase a” value in data set [1] (FVB mice, i.v., share of Phase a in blood excretion curve) was 23%. The “% Phase b” value in data set [1] (FVB mice, i.v., share of Phase b in blood excretion curve) is reported as 77%. For the same compound, the “Albumin-binding affinity relative to [177Lu]Lu-DOTA-ALB-1” value in data set [2] was “almost no difference”. Also, the results for the “Fold stronger albumin-binding affinity than [177Lu]Lu-DOTA-ALB-25” value in data set [2] and in data set [3] were ~ 4 fold and ~ 10 fold, respectively. In addition, the “Fold increased albumin-binding affinity relative to [177Lu]Lu-DOTA-ALB-1” value in data set [3] is ~ 15 fold.

Regarding `O=C(O)CN1CCN(CC(=O)O)CCN(CC(=O)NCCC(=O)N[C@@H](CCCCNC(=O)CCCCc2ccc(I)cc2)C(=O)O)CCN(CC(=O)O)CC1.[177Lu]` [[^177Lu]Lu-DOTA-ALB-24], the “Rel. Blood AUC0–7days” value in data set [1] (mouse, in vivo) came out at 0.08. Besides, in data set [1] (mouse, in vivo, iv), the “% Phase a” value is recorded as 99%, the “% Phase b” value is reported as 1%, the “Blood AUC0–7days” value was found to be 119 % IA× h and the “Half-Life Phase a” value was determined as 0.8 h. Moreover, the “Half-Life Phase b” value in data set [1] (mouse, in vivo, iv) is recorded as 8.9 h.

As to `O=C(O)CN1CCN(CC(=O)O)CCN(CC(=O)NCCC(=O)N[C@@H](CCCCNC(=O)c2ccc(CNC(=O)CCCCc3ccc(I)cc3)cc2)C(=O)O)CCN(CC(=O)O)CC1.[177Lu]` [[^177Lu]Lu-DOTA-ALB-25], in data set [1] (mouse, in vivo), the “Rel. Blood AUC0–7days” value came to 0.3. For the same compound, in data set [1] (mouse, in vivo, iv), the “% Phase a” value is on record as 41%, the “% Phase b” value was determined as 59%, the “Blood AUC0–7days” value stood at 425 % IA× h and the “Half-Life Phase a” value came out at 0.7 h. For the same compound, the “Half-Life Phase b” value in data set [1] (mouse, in vivo, iv) came to 4.5 h. In data set [2], the “Fold higher albumin-binding affinity than [177Lu]Lu-DOTA-ALB-24” value was ~ 3 fold. The “Fold higher albumin-binding affinity than [177Lu]Lu-DOTA-ALB-24” value in data set [3] is ~ 5 fold.
